# Molecular target: T1, human GlyT1c transporter (Homo sapiens, UniProt P48067)
# T1 construct: expressed in transfected cells; host or cells: CHO cells (recombinant; line hGlyT1c_5_CHO is named for the uptake assay)
# T1 sequence (P48067 1-706): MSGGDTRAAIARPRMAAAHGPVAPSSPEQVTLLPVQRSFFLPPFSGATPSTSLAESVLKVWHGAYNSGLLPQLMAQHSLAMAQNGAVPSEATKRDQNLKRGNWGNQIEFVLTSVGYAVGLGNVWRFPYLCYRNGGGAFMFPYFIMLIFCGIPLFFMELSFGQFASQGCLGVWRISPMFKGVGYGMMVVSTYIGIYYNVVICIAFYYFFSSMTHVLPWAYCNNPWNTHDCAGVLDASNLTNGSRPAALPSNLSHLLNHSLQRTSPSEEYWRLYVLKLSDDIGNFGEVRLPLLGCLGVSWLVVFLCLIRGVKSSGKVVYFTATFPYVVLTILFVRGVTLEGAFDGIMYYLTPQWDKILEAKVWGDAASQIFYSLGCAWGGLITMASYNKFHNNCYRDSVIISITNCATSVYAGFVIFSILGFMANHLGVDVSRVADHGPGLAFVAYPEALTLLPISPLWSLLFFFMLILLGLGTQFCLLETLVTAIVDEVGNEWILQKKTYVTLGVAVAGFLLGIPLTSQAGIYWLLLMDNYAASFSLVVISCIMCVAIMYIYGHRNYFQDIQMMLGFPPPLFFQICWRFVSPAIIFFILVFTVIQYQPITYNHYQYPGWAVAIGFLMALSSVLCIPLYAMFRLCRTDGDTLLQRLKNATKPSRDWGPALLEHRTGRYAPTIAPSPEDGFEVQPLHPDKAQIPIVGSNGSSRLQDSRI
# Experiment: Radioligand binding assay using recombinant CHO cell membranes expressing human GlyT1
# Conditions: radioligand binding to human GlyT1c transporter-expressing membranes
# From the text: 2. Radioligand binding assays using recombinant CHO cell membranes expressing human GlyT1: […]
row,Ki [nM],Structure (SMILES)
1,≤ 10000,"Cn1cnc(S(=O)(=O)N2C[C@@H](Nc3cccc(C(F)(F)F)n3)[C@H](c3ccccc3F)C2)c1 (relative stereo) [Example 203, N-{trans-4-(2-fluorophenyl)-1-[(1-methyl-1H-imidazol-4-yl)sulfonyl]pyrrolidin-3-yl}-6-(trifluoromethyl)pyridin-2-amine]"
2,≤ 100,"Cn1cnc(S(=O)(=O)N2C[C@@H](Nc3ccnc(C(F)(F)F)c3)[C@H](c3ccccc3F)C2)c1 (relative stereo) [Example 204, N-{trans-4-(2-fluorophenyl)-1-[(1-methyl-1H-imidazol-4-yl)sulfonyl]pyrrolidin-3-yl}-2-(trifluoromethyl)pyridin-4-amine]"
3,≤ 10000,"Cn1cnc(S(=O)(=O)N2C[C@@H](CO)[C@H](c3ccc(F)cc3)C2)c1 (relative stereo) [Example 206, {Trans-4-(4-fluorophenyl)-1-[(1-methyl-1H-imidazol-4-yl)sulfonyl]pyrrolidin-3-yl}methanol]"
4,≤ 10000,"Cn1cnc(S(=O)(=O)N2C[C@@H](Nc3ccccn3)[C@H](c3ccccc3)C2)c1 (relative stereo) [Example 207, N-{trans-1-[(1-methyl-1H-imidazol-4-yl)sulfonyl]-4-phenylpyrrolidin-3-yl}pyridin-2-amine]"
5,≤ 10000,"Cn1cnc(S(=O)(=O)N2C[C@@H](Nc3cccnc3)[C@H](c3ccccc3)C2)c1 (relative stereo) [Example 208, N-{trans-1-[(1-methyl-1H-imidazol-4-yl)sulfonyl]-4-phenylpyrrolidin-3-yl}pyridin-3-amine]"
6,≤ 10000,"Cn1cnc(S(=O)(=O)N2C[C@@H](Nc3ccncc3)[C@H](c3ccccc3)C2)c1 (relative stereo) [Example 209, N-{trans-1-[(1-methyl-1H-imidazol-4-yl)sulfonyl]-4-phenylpyrrolidin-3-yl}pyridin-4-amine]"
7,≤ 10000,"Cn1cnc(S(=O)(=O)N2C[C@@H](Nc3cccc(C(F)(F)F)n3)[C@H](c3ccccc3)C2)c1 (relative stereo) [Example 210, N-{trans-1-[(1-methyl-1H-imidazol-4-yl)sulfonyl]-4-phenylpyrrolidin-3-yl}-6-(trifluoromethyl)pyridin-2-amine]"
8,≤ 1000,"Cn1cnc(S(=O)(=O)N2C[C@@H](Nc3ccnc(C(F)(F)F)c3)[C@H](c3ccccc3)C2)c1 (relative stereo) [Example 211, N-{trans-1-[(1-methyl-1H-imidazol-4-yl)sulfonyl]-4-phenylpyrrolidin-3-yl}-2-(trifluoromethyl)pyridin-4-amine]"
9,≤ 100,"Cn1cnc(S(=O)(=O)N2C[C@@H](Nc3cc(C(F)(F)F)ccn3)[C@H](c3ccccc3)C2)c1 (relative stereo) [Example 212, N-{trans-1-[(1-methyl-1H-imidazol-4-yl)sulfonyl]-4-phenylpyrrolidin-3-yl}-4-(trifluoromethyl)pyridin-2-amine]"
10,≤ 1000,"Cn1cnc(S(=O)(=O)N2C[C@@H](Nc3cncc(C(F)(F)F)c3)[C@H](c3ccccc3)C2)c1 (relative stereo) [Example 213, N-{trans-1-[(1-methyl-1H-imidazol-4-yl)sulfonyl]-4-phenylpyrrolidin-3-yl} -5 - (trifluoromethyl)pyridin-3-amine]"
11,≤ 1000,"Cn1cnc(S(=O)(=O)N2C[C@@H](Nc3ccc(F)c(F)c3)[C@H](c3ccccc3)C2)c1 (relative stereo) [Example 216, trans-N-(3,4-difluorophenyl)-1-[(1-methyl-1H-imidazol-4-yl)sulfonyl]-4-phenylpyrrolidin-3-amine]"
12,≤ 1000,"Cn1cnc(S(=O)(=O)N2C[C@@H](Nc3ccc(Cl)c(C(F)(F)F)c3)[C@H](c3ccccc3)C2)c1 (relative stereo) [Example 217, trans-N-[4-chloro-3-(trifluoromethyl)phenyl]-1-[(1-methyl-1H-imidazol-4-yl)sulfonyl]-4-phenylpyrrolidin-3-amine]"
13,≤ 1000,"Cn1cnc(S(=O)(=O)N2C[C@@H](Nc3ccc(Cl)c(Cl)c3)[C@H](c3ccccc3)C2)c1 (relative stereo) [Example 218, trans-N-(3,4-dichlorophenyl)-1-[(1-methyl-1H-imidazol-4-yl)sulfonyl]-4-phenylpyrrolidin-3-amine]"
14,≤ 10000,"Cn1cnc(S(=O)(=O)N2C[C@@H](Nc3cc(F)c(F)c(Cl)c3)[C@H](c3ccccc3)C2)c1 (relative stereo) [Example 219, trans-N-(3-chloro-4,5-difluorophenyl)-1-[(1-methyl-1H-imidazol-4-yl)sulfonyl]-4-phenylpyrrolidin-3-amine]"
15,≤ 10,"CC(C)c1cccc(N[C@@H]2CN(S(=O)(=O)c3cn(C)cn3)C[C@H]2c2ccccc2)c1 (relative stereo) [Example 220, trans-1-[(1-methyl-1H-imidazol-4-yl)sulfonyl]-4-phenyl-N-[3-(propan-2-yl)phenyl]pyrrolidin-3-amine]"
16,≤ 1000,"Cn1cnc(S(=O)(=O)N2C[C@@H](Nc3cccc(C(C)(C)C)c3)[C@H](c3ccccc3)C2)c1 (relative stereo) [Example 221, trans-N-(3-tert-butylphenyl)-1-[(1-methyl-1H-imidazol-4-yl)sulfonyl] -4-phenylpyrrolidin-3-amine]"
17,≤ 1000,"Cn1cnc(S(=O)(=O)N2C[C@@H](Nc3cccc(C(F)(F)F)c3F)[C@H](c3ccccc3)C2)c1 (relative stereo) [Example 222, trans-N-[2-fluoro-3-(trifluoromethyl)phenyl]-1-[(1-methyl-1H-imidazol-4-yl)sulfonyl]-4-phenylpyrrolidin-3-amine]"
18,≤ 100,"Cn1cnc(S(=O)(=O)N2C[C@@H](Nc3cc(F)cc(C(F)(F)F)c3)[C@H](c3ccccc3)C2)c1 (relative stereo) [Example 223, trans-N-[3-fluoro-5-(trifluoromethyl)phenyl]-1-[(1-methyl-1H-imidazol-4-yl)sulfonyl]-4-phenylpyrrolidin-3-amine]"
19,≤ 1000,"Cn1cnc(S(=O)(=O)N2C[C@@H](Nc3cc(C(F)(F)F)ccc3F)[C@H](c3ccccc3)C2)c1 (relative stereo) [Example 224, trans-N-[2-fluoro-5-(trifluoromethyl)phenyl]-1-[(1-methyl-1H-imidazol-4-yl)sulfonyl]-4-phenylpyrrolidin-3-amine]"
20,≤ 10000,"Cn1cnc(S(=O)(=O)N2C[C@@H](Nc3cc(F)cc(Cl)c3)[C@H](c3ccccc3)C2)c1 (relative stereo) [Example 225, trans-N-(3-chloro-5-fluorophenyl)-1-[(1-methyl-1H-imidazol-4-yl)sulfonyl]-4-phenylpyrrolidin-3-amine]"
21,≤ 10,"Cn1cnc(S(=O)(=O)N2C[C@@H](Nc3cccc(OC(F)(F)F)c3)[C@H](c3ccccc3)C2)c1 (relative stereo) [Example 226, trans-1-[(1-methyl-1H-imidazol-4-yl)sulfonyl]-4-phenyl-N-[3-(trifluoromethoxy)phenyl]pyrrolidin-3-amine]"

row,Structure (SMILES),Ki [nM]
1,"Cn1cnc(S(=O)(=O)N2C[C@@H](Nc3ccc(F)c(Cl)c3)[C@H](c3ccccc3)C2)c1 (relative stereo) [Example 215, trans-N-(3-chloro-4-fluorophenyl)-1-[(1-methyl-1H-imidazol-4-yl)sulfonyl]-4-phenylpyrrolidin-3-amine]",≤ 100
